# Laboratory results published in patent US10399972B2, “Tricyclic compounds as inhibitors of mutant IDH enzymes” (Merck Sharp & Dohme Corp., priority 2015, dated 2019).
# Target: R132H mutant IDH1 enzyme (Homo sapiens (Human), UniProt O75874, R132H)
# Assay: R132H IDH1 Enzymatic Assay
# Type: biochemical
# Details: 1.5 nM final, 30 min preincubation, 60 min reaction, Kinase-GLO luminescence
# Procedure: R132H IDH1 Enzymatic Assay
# Each test compound (10 mM stock in DMSO) is diluted in DMSO to make a 10-point, 3-fold dilution series. 125 nL of each dilution or DMSO alone is dispensed to a 384-well Greiner Lumitrac 200 assay plate using an Echo® Liquid Handler. To each well of the plate is added 20 uL of enzyme in assay buffer or assay buffer alone. Assay buffer consists of 50 mM sodium phosphate, pH 7.0, 50 mM magnesium chloride, 50 mM sodium chloride, and 0.01% (w/v) bovine serum albumin. When present, the R132H mutant IDH1 enzyme is at a working concentration of 1.875 nM (final concentration in assay of 1.5 nM). The assay plate is allowed to incubate for 30 minutes at room temperature and 5 uL of 5× substrate mixture (2.5 uM nicotinamide adenine dinucleotide phosphate, 100 uM adenosine diphosphate, 7.5 mM glyceraldehyde-3-phosphate, 7.5 ug/mL of spinach glyceraldehyde-3-phosphate dehydrogenase, 25 nM phosphoglycerate kinase, and 5 mM alpha-ketoglutarate in assay buffer) is added to all wells. The reaction plate is incubated for 60 minutes followed by addition of 25 uL of Promega Kinase-GLO reagent to all wells and 10-minute incubation.
# Luminescence is measured using a PerkinElmer Envision plate reader. The percent activity of each dilution is determined as the ratio of background corrected signal to the background corrected signal of wells receiving only DMSO. IC50 values are determined by fitting percent activity data to a four-parameter logistic dose response equation. The IC50 values of the exemplified compounds are included in Table 8.
# Sequence of R132H mutant IDH1 enzyme (O75874 whole entry R132H): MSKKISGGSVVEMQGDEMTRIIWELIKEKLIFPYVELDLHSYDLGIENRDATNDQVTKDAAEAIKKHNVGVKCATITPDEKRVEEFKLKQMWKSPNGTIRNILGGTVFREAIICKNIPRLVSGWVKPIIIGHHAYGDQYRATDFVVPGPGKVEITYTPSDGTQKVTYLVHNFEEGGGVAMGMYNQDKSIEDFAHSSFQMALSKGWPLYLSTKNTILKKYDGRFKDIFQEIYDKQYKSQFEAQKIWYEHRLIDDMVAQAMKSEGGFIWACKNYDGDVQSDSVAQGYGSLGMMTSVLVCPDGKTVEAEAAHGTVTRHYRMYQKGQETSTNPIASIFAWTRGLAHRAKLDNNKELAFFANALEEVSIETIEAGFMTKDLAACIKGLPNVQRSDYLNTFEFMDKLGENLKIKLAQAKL
row,IC50 [µM],SMILES
1,0.036,"CC(C)O[C@H]1CC[C@H](C(=O)N2Cc3cccnc3Nc3cc(F)c(C4COCCO4)cc32)OC1 (stereo partly drawn) [Example 38, (8-(1,4-dioxan-2-yl)-9-fluoro-5,11-dihydro-6H-benzo[b]pyrido[2,3-e][1,4]diazepin-6-yl)((2R,5S)-5-isopropoxytetrahydro-2H-pyran-2-yl)methanone]"
2,0.174,"O=C(C1CCN(CC(F)(F)F)CC1)N1Cc2cccnc2Nc2cc(F)ccc21 [Example 74, (9-Fluoro-5,11-dihydro-6H-benzo[b]pyrido[2,3-e][1,4]diazepin-6-yl)(1-(2,2,2-trifluoroethyl)piperidin-4-yl)methanone]"
3,0.0099,"O=C(C1CCN(CC(F)(F)F)CC1)N1Cc2cc(F)cnc2Nc2cc(F)c(N3CC4CCC3CO4)cc21 (stereo not shown) [Example 29, (8-(2-oxa-5-azabicyclo[2.2.2]octan-5-yl)-3,9-difluoro-5,11-dihydro-6H-benzo[b]pyrido[2,3-e][1,4]diazepin-6-yl)(1-(2,2,2-trifluoroethyl)piperidin-4-yl)methanone]"
4,0.018,"O=C(C1CCN(CC(F)(F)F)CC1)N1Cc2cc(F)cnc2Nc2cc(F)c(N3C[C@H]4CC[C@@H]3CO4)cc21 [Example 31, (8-((1R,4R)-2-oxa-5-azabicyclo[2.2.2]octan-5-yl)-3,9-difluoro-5,11-dihydro-6H-benzo[b]pyrido[2,3-e][1,4]diazepin-6-yl)(1-(2,2,2-trifluoroethyl)piperidin-4-yl)methanone]"

# More lines, now with the values behind:
row,SMILES,IC50 [µM]
1,"CC(C)O[C@H]1CC[C@H](C(=O)N2Cc3cc(F)cnc3Nc3cc(F)c(N4CC5(CCCOC5)C4)cc32)OC1 [Example 45, (3,9-Difluoro-8-(6-oxa-2-azaspiro[3.5]nonan-2-yl)-5H-benzo[b]pyrido[2,3-e][1,4]diazepin-6(11H)-yl)((2R,5S)-5-isopropoxytetrahydro-2H-pyran-2-yl)methanone]",0.0183
2,"CC(C)O[C@H]1CC[C@H](C(=O)N2Cc3cc(F)cnc3Nc3ccc(N4C[C@H]5CC[C@@H]4CO5)cc32)OC1 [Example 48, (8-((1R,4R)-2-oxa-5-azabicyclo[2.2.2]octan-5-yl)-3-fluoro-5,11-dihydro-6H-benzo[b]pyrido[2,3-e][1,4]diazepin-6-yl)((2R,5S)-5-isopropoxytetrahydro-2H-pyran-2-yl)methanone]",0.01
3,"CC(C)O[C@H]1CC[C@H](C(=O)N2Cc3cc(F)cnc3Nc3ccc([C@H]4COCCO4)cc32)OC1 [Example 33, (8-((S)-1,4-Dioxan-2-yl)-3-fluoro-5,11-dihydro-6H-benzo[b]pyrido[2,3-e][1,4]diazepin-6-yl)((2R,5S)-5-isopropoxytetrahydro-2H-pyran-2-yl)methanone]",0.0218
4,"CC(C)O[C@H]1CC[C@H](C(=O)N2Cc3cc(F)cnc3Nc3cc(F)c(N4C[C@@H]5C[C@H]4CO5)cc32)CC1 [Example 24, {3,9-difluoro-8-[(1S,4S)-2-oxa-5-azabicyclo[2.2.1]hept-5-yl]-5,11-dihydro-6H-pyrido[2,3-b][1,5]benzodiazepin-6-yl}[trans-4-(propan-2-yloxy)cyclohexyl]methanone]",0.0056
5,"CC(C)O[C@H]1CC[C@H](C(=O)N2c3cc(N4CCOCC4)ccc3Nc3ncccc3C2C)CC1 (stereo partly drawn) [Example 66, (Trans-4-isopropoxycyclohexyl)(5-methyl-8-morpholino-5,11-dihydro-6H-benzo[b]pyrido[2,3-e][1,4]diazepin-6-yl)methanone]",0.0719
6,"CC(C)O[C@H]1CC[C@H](C(=O)N2Cc3cc(F)cnc3Nc3ccc(N4CC5CCC4CO5)cc32)CC1 (single isomer, unassigned) [Example 14, [3-fluoro-8-(2-oxa-5-azabicyclo[2.2.2]oct-5-yl)-5,11-dihydro-6H-pyrido[2,3-b][1,5]benzodiazepin-6-yl][trans-4-(propan-2-yloxy)cyclohexyl]methanone]",0.0443
